“Also recorded” adds a separate entry of the source.

The results in this text go back to patent publication US9435809B2, “Method of treating and reducing the risk of acute myelogenous leukemia” (Memorial Sloan-Kettering Cancer Center, priority 2011, dated 2016).

For one assay, the system named is Mono-Mac-1 cells. The assay is described as follows: MTT growth assay of AML cell lines: Mono-Mac-1. It counts as cell-based. As to conditions: at 5 μM; MTT assay after 72 hours. How it is done: (§1) Cells were treated with p300 inhibitors at different concentrations in a 96-well plate. After 72 hours, 0.1 mg MTT was added to each well. The samples were incubated at 37° C. for 4 hours and the absorbance was measured at 570 nm by spectrophotometry.
In general terms: Formazan colour is commonly taken as a measure of viable cells.

The subject of a further assay is NB4 cells. The assay is described as follows: MTT growth assay of AML cell lines: NB4. It counts as cell-based. The settings on record: at 5 μM; MTT assay after 72 hours. Here is the method: as §1
A further assay relates to HL60 cells. The assay is described as follows: MTT growth assay of AML cell lines: HL60. It counts as cell-based. As to conditions: at 5 μM; MTT assay after 72 hours. How it is done:
as §1

The test system of another assay is THP-1 cells. The assay is described as follows: MTT growth assay of AML cell lines: THP-1. It counts as cell-based. The settings on record: at 5 μM; MTT assay after 72 hours. Here is the method: as §1
For a further assay, the system named is Kasumi-1 cells. The assay is described as follows: Growth of Kasumi-1 cells. It counts as cell-based, human. As to conditions: Lys-CoA-Tat and DDDD-Tat 50 μM; C646 concentration not stated. How it is done: (§2) Leukemia cells were obtained from two AML patients with t(8;21) by Ficoll-hypaque separation. Informed consent was obtained from the patients, according to institutional (IRB) guidelines. The cell viabilities of the primary leukemia cells, Kasumi-1 cells, HL60 cells and human CD34^+ cells were assessed by triplicate counting of trypan blue dye-excluding cells under light microscopy. The cell morphology was evaluated by Wright's staining of cells prepared by cytospin centrifugation. Blast cells were isolated from the bone marrow and spleen of the mice with AE9a or MLL-AF9 driven leukemia, and treated for 12 hours with Lys-CoA-Tat or DDDD-Tat (at 50 μM), or C646 vs. C37 (at 20 μM). Female C57Bl/6 mice were sublethally irradiated with 475 cGy, and then injected with 3×10^6 treated blast cells via tail vein.
as §1

The subject of assay [1] is AE9a expressing mouse leukemia cells. The assay is described as follows: AE9a mouse AML model, leukemia cells treated ex vivo and injected. It counts as in vivo. Here is the method:
as §2
(§3) Assays were set up in triplicates and the results expressed as the mean±SD. Statistical analyses were performed using Student's t-test. Survival functions were estimated using the Kaplan-Meier method and compared by the log-rank test.

For another assay, the system named is HEL cells. The assay is described as follows: MTT growth assay of AML cell lines: HEL. It counts as cell-based. As to conditions: at 5 μM; MTT assay after 72 hours. Here is the method:
as §1

For another assay, the system named is U937 cells. The assay is described as follows: MTT growth assay of AML cell lines: U937. It counts as cell-based. As to conditions: at 5 μM; MTT assay after 72 hours. Here is the method:
as §1

The subject of assay [2] is acetylated A-EK43 (AML1-ETO). The assay is described as follows: A-EK43 acetylation in Kasumi-1 cells (IP / Western blot). It counts as cell-based, human. The settings on record: Lys-CoA-Tat 50 μM, C646 10 or 20 μM for 24 hours. The text has this:
(§4) Anti-p300 (Millipore or Santa Cruz), anti-Flag (Sigma), anti-HA (Santa Cruz), anti-ETO (generated in the Roeder lab or Santa Cruz), anti-AML1 (Zhao, X. et al, Genes Dev 22, 640, 2008), anti-acetylated lysine (Stressgen), anti-acetylated Histone H3 (Millipore), anti-Tubulin (Sigma), anti-TAFII250 (generated in the Roeder lab) and anti-TAF7 (generated in the Roeder lab) antibodies were used. Two anti-acetylated AML1-ETO polyclonal antibodies were generated by immunizing rabbits with the synthetic peptides (TALSPGK [acetylated] MSEA SEQ ID NO: 10 or LAGK [acetylated] LRSGDRS SEQ ID NO: 11) conjugated to KLH. The polyclonal antiserum was collected and purified using a peptide affinity column. The affinity of the antibodies against acetyl-lysine AML1-ETO was measured by dot blot assays. For the dot blot assays, 5 pmol of peptide (measured by Ellman's reagent) was spotted onto a nitrocellulose membrane. The control peptides were as follows: AML1-ETOK24 peptide (TALSPGKMSEA) (SEQ ID NO: 10) and AML1-ETOK43 peptide (LAGK LRSGDRS) (SEQ ID NO: 11).
(§5) The Flag-AE, Flag-AE-ΔNHR1 (aa245-436), Flag-AE-ΔNHR2, Flag-ETO, Flag-ETO-ΔNHR1 and Flag-ETO-ΔNHR2 cDNAs were cotransfected into 80% confluent 293T cells using the FuGene 6 reagent. After 36 hours the cells were lysed in RIPA buffer with 1 mM DTT and DNAse I 1 μg/mL and a proteinase inhibitor cocktail (Roche), and incubated on ice for 30 minutes. […]
In general terms: Immunoblotting shows a protein as a band on a membrane.

Assay [3] deals with MLL-AF9 expressing mouse leukemia cells. The assay is described as follows: MLL-AF9 mouse leukemia model, leukemia cells treated ex vivo and injected. It counts as in vivo. As to conditions: cells treated ex vivo 12 hours with 50 μM Lys-CoA-Tat/DDDD-Tat or 20 μM C646/C37; sublethally irradiated recipients. Here is the method: as §2, §3
In a further assay the test system is Id1, p21 and Egr1 mRNA. The assay is described as follows: qPCR of AML1-ETO activated target genes in Kasumi-1 cells. It counts as cell-based, human. The settings on record: 24 hours, Lys-CoA-Tat 50 μM, C646 20 μM. How it is done: The RNA extraction and cDNA generation procedures were described above. The reverse transcription reaction was performed for 10 min at 25° C., 50 min at 50° C., 5 min at 85° C. and 20 min at 37° C. Real-time quantitative PCR was performed using a TaqMan 7500 sequence detector system (Applied Biosystems). The thermal cycle conditions were:
50° C. for 2 min, 95° C. for 10 min to activate Amplitaq Gold DNA polymerase, denaturation at 95° C. for 15 seconds and anneal/extension at 60° C. for 1 min (45 cycles). Quantitative PCR for HPRT was performed to normalize for cDNA loading. The relative quantification of gene expression was calculated using the method […], as described by the manufacturer.
For orientation: Quantitative PCR measures a nucleic acid by following its amplification.

The test system of a further assay is MO-91 cells. The assay is described as follows: MTT growth assay of AML cell lines: MO-91. It counts as cell-based. As to conditions: at 5 μM; MTT assay after 72 hours. How it is done: as §1
Another assay deals with histone H3. The assay is described as follows: Histone H3 acetylation in Kasumi-1 cells (Western blot). It counts as cell-based, human. As to conditions: Lys-CoA-Tat 50 μM, C646 10 or 20 μM for 24 hours.
Text: as §4, §5

The mark [4] stands for this setting: AE9a cells treated ex vivo 12 hours, 50 μM Lys-CoA-Tat vs DDDD-Tat or 20 μM C646 vs C37.

Regarding `CC1=NN(c2ccc(C(=O)O)cc2)C(=O)/C1=C\c1ccc(-c2cc(C)c(C)cc2[N+](=O)[O-])o1` [C646], the “growth of Mono-Mac-1 cells” value in the assay with Mono-Mac-1 cells is reported as “minimal effect”. For the same compound, the “growth of NB4 cells” value in the assay on NB4 cells is given as “inhibited the growth”. Further, the “growth of HL60 cells” value in the assay on HL60 cells is reported as “minimal effect”. In the assay on THP-1 cells, the “growth of THP-1 cells” value is on record as “minimal effect”. Also, the “growth of Kasumi-1 cells” value with Kasumi-1 cells is listed as “as did C646”. Moreover, in [1] (setting [4]), the “Percent of GFP+ C-Kit+ cells in peripheral blood” value is on record as “reduced the number; also recorded: significantly less”, the WBC counts result is reported as “lower white blood counts; also recorded: significantly lower”, the “platelet count (PLT)” value is “less thrombocytopenia; also recorded: higher” and the “red blood cell count (RBC)” value is “less anemia; also recorded: higher”. For the same compound, in assay [1] (cells treated ex vivo 12 hours with 50 μM Lys-CoA-Tat/DDDD-Tat or 20 μM C646/C37, sublethally irradiated recipients), the “Median survival of AE9a mice” value was 43 days. In addition, in the assay with HEL cells, the “growth of HEL cells” value is “inhibited the growth”. Besides, the “growth of U937 cells” value in the assay with U937 cells was “inhibited the growth”. Also, the “level of acetylated A-EK43” value in assay [2] was “decreased the level; also recorded: decreased acetylation”. Moreover, in [3], the “Median survival of MLL-AF9 mice” value is 28 days. In the assay with Id1, p21 and Egr1 mRNA, the “expression of AML1-ETO activated target genes (Id1, p21 and Egr1 mRNA)” value was “decreased the level; also recorded: downregulated expression”. In addition, the “growth of MO-91 cells” value in the assay on MO-91 cells is reported as “inhibited the growth”. In addition, the “level of acetylated histone H3” value with histone H3 is recorded as “decreased the level”.
